# Measurements reported in patent US20190367516A1 (Bayer Pharma Aktiengesellschaft, priority 2015, published 2019).
# Experiments:
# human M2 receptor [1] = biological target: T1, human M2 receptor (Homo sapiens, UniProt P08172); conditions: Receptor activity EC50, M2-GIRK1/4 activation test, acetylcholine at EC20; allosteric potency; in some cases mean values from two or more determinations
# T1 sequence (P08172 1-466): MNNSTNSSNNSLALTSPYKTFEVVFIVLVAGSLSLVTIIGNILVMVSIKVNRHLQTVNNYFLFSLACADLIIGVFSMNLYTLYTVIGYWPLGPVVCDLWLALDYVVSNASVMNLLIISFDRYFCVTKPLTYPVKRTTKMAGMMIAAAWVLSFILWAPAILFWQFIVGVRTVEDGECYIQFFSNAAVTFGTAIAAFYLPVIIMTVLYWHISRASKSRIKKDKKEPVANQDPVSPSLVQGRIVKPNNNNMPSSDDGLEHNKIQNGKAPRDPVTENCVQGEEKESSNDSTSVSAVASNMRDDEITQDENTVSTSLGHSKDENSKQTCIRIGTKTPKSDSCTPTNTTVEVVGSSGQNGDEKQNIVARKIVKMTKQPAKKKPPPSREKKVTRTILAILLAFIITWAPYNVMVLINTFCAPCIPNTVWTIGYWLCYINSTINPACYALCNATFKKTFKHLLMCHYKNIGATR
# human M2 receptor [2] = biological target: T1, human M2 receptor; assay type: cell-based; conditions: shift in the acetylcholine dose-response curve (Allosteric EC50 shift, GraphPad PRISM); α >1 = positive cooperativity
# Experimental: B-1.2. Determination of Positive Cooperativity (α Factor)
# In contrast to the EC50 determination of the test substances (see B-1.1), however, this is not done using one acetylcholine concentration; instead, every concentration of the test substance is combined with an acetylcholine 8-point dose-response curve. […] The shift in the acetylcholine dose-response curve in the presence of increasing concentrations of the test substance is analysed and quantified by means of GraphPad PRISM (Allosteric EC50 shift). […] Positive cooperativity is the hallmark of a positive allosteric modulator. […] The greater the magnitude of the α value, the greater the extent of cooperativity between orthosteric and allosteric.
SMILES,EC50 (human M2 receptor [1]),Cooperativity (alpha factor) (human M2 receptor [2])
"CC[C@@H](NC(=O)c1cn(-c2ccc(F)cc2F)c2nc(N3CCC4(C3)CC4(F)F)ccc2c1=O)C(F)(F)F (mixture of isomers) [Example 29, 7-(1,1-Difluoro-5-azaspiro[2.4]hept-5-yl)-1-(2,4-difluorophenyl)-4-oxo-N-[(2R)-1,1,1-trifluorobutan-2-yl]-1,4-dihydro-1,8-naphthyridine-3-carboxamide (diastereomer mixture)]",112 nM,4
"CC[C@@H](NC(=O)c1cn(-c2ccc(F)cc2F)c2nc(N3CCC(C)(F)C3)ccc2c1=O)C(F)(F)F (mixture of isomers) [Example 30, 1-(2,4-Difluorophenyl)-7-(3-fluoro-3-methylpyrrolidin-1-yl)-4-oxo-N-[(2R)-1,1,1-trifluorobutan-2-yl]-1,4-dihydro-1,8-naphthyridine-3-carboxamide (diastereomer mixture)]",95 nM,11
"CC[C@@H](NC(=O)c1cn(-c2ccc(F)cc2F)c2nc(N3CCC(C)(OC)C3)ccc2c1=O)C(F)(F)F (mixture of isomers) [Example 191, 1-(2,4-Difluorophenyl)-7-[3-methoxy-3-methylpyrrolidin-1-yl]-4-oxo-N-[(2R)-1,1,1-trifluorobutan-2-yl]-1,4-dihydro-1,8-naphthyridine-3-carboxamide]",60 nM,7
"O=C(NC(C1CC1)C(F)(F)F)c1cn(-c2ccccc2Cl)c2nc(N3C[C@@H](O)CC3=O)ccc2c1=O (mixture of isomers) [Example 279, 1-(2-Chlorophenyl)-N-[1-cyclopropyl-2,2,2-trifluoroethyl]-7-[(4S)-4-hydroxy-2-oxopyrrolidin-1-yl]-4-oxo-1,4-dihydro-1,8-naphthyridine-3-carboxamide]",66 nM,34
"CCC(NC(=O)c1cn(-c2ccc(F)cc2F)c2nc(N3CCN(C(=O)OC)CC3)ccc2c1=O)C(F)(F)F (racemic) [Example 23, rac-Methyl 4-{8-(2,4-difluorophenyl)-5-oxo-6-[(1,1,1-trifluorobutan-2-yl)carbamoyl]-5,8-dihydro-1,8-naphthyridin-2-yl}piperazine-1-carboxylate]",96 nM,20
"CCC(NC(=O)c1cn(-c2ccc(F)cc2F)c2nc(NCCF)ccc2c1=O)C(F)(F)F (racemic) [Example 85, rac-1-(2,4-Difluorophenyl)-7-[(2-fluoroethyl)amino]-4-oxo-N-[1,1,1-trifluorobutan-2-yl]-1,4-dihydro-1,8-naphthyridine-3-carboxamide]",118 nM,26
"CC(C)CC(NC(=O)c1cn(-c2ccc(F)cc2F)c2nc(N(C)CCF)ccc2c1=O)C(F)(F)F (racemic) [Example 107, rac-1-(2,4-Difluorophenyl)-7-[(2-fluoroethyl)(methyl)amino]-4-oxo-N-[1,1,1-trifluoro-4-methylpentan-2-yl]-1,4-dihydro-1,8-naphthyridine-3-carboxamide]",57 nM,14
"CC(NC(=O)c1cn(-c2ccc(F)cc2F)c2nc(NCC(F)F)ccc2c1=O)C(F)(F)F (racemic) [Example 121, rac-7-[(2,2-Difluoroethyl)amino]-1-(2,4-difluorophenyl)-4-oxo-N-[1,1,1-trifluoropropan-2-yl]-1,4-dihydro-1,8-naphthyridine-3-carboxamide]",295 nM,8
"CC[C@@H](NC(=O)c1cn(-c2ccc(F)cc2F)c2nc(N3CCC(C)(O)C3=O)ccc2c1=O)C(F)(F)F (mixture of isomers) [Example 194, 1-(2,4-Difluorophenyl)-7-[3-hydroxy-3-methyl-2-oxopyrrolidin-1-yl]-4-oxo-N-[(2R)-1,1,1-trifluorobutan-2-yl]-1,4-dihydro-1,8-naphthyridine-3-carboxamide]",140 nM,16
"CC[C@@H](NC(=O)c1cn(-c2ccc(F)cc2F)c2nc(N3CCC(C)(OC)C3=O)ccc2c1=O)C(F)(F)F (mixture of isomers) [Example 197, 1-(2,4-Difluorophenyl)-7-[3-methoxy-3-methyl-2-oxopyrrolidin-1-yl]-4-oxo-N-[(2R)-1,1,1-trifluorobutan-2-yl]-1,4-dihydro-1,8-naphthyridine-3-carboxamide]",120 nM,10
"O=C(NC(c1ccccc1Cl)C(F)(F)F)c1cn(-c2ccc(F)cc2F)c2nc(N3CCCC(O)C3=O)ccc2c1=O (racemic) [Example 206, rac-N-[(1R)-(2-Chlorophenyl)-2,2,2-trifluoroethyl]-1-(2,4-difluorophenyl)-7-[3-hydroxy-2-oxopiperidin-1-yl]-4-oxo-1,4-dihydro-1,8-naphthyridine-3-carboxamide]",107 nM,14
"CC(NC(=O)c1cn(-c2ccc(F)cc2F)c2nc(N3C[C@@H](O)CC3=O)ccc2c1=O)c1c(F)cccc1F (mixture of isomers) [Example 214, 1-(2,4-Difluorophenyl)-N-[1-(2,6-difluorophenyl)ethyl]-7-[(4S)-4-hydroxy-2-oxopyrrolidin-1-yl]-4-oxo-1,4-dihydro-1,8-naphthyridine-3-carboxamide]",107 nM,43
"CN(C)c1ccc2c(=O)c(C(=O)NCc3c(Cl)cccc3C(F)(F)F)cn(-c3ccc(F)cc3F)c2n1 [Example 58, N-[2-Chloro-6-(trifluoromethyl)benzyl]-1-(2,4-difluorophenyl)-7-(dimethylamino)-4-oxo-1,4-dihydro-l,8-naphthyridine-3-carboxamide]",–,9
"CC[C@H](NC(=O)c1cn(-c2c(F)cc(F)cc2F)c2nc(N3CCN(CCO)C3=O)ccc2c1=O)C(F)(F)F [Example 362, 7-[3-(2-Hydroxyethyl)-2-oxoimidazolidin-1-yl]-4-oxo-N-[(2S)-1,1,1-trifluorobutan-2-yl]-1-(2,4,6-trifluorophenyl)-1,4-dihydro-1,8-naphthyridine-3-carboxamide]",–,27

# Results, then the molecule that gave them:
EC50 (human M2 receptor [1]),Cooperativity (alpha factor) (human M2 receptor [2]),SMILES
33 nM,55,"O=C(NC(c1cccc(F)c1)C(F)(F)F)c1cn(-c2ccc(F)cc2F)c2nc(N3C[C@@H](O)CC3=O)ccc2c1=O (mixture of isomers) [Example 272, 1-(2,4-Difluorophenyl)-7-[(4S)-4-hydroxy-2-oxopyrrolidin-1-yl]-4-oxo-N-[2,2,2-trifluoro-1-(3-fluorophenyl)ethyl]-1,4-dihydro-1,8-naphthyridine-3-carboxamide]"
40 nM,11,"CC1(F)CCN(c2ccc3c(=O)c(C(=O)NC45CC6CC(CC(C6)C4)C5)cn(-c4ccc(F)cc4F)c3n2)C1 (racemic) [Example 9, rac-1-(2,4-Difluorophenyl)-7-(3-fluoro-3-methylpyrrolidin-1-yl)-4-oxo-N-(tricyclo[3.3.1.1^3,7]dec-1-yl)-1,4-dihydro-1,8-naphthyridine-3-carboxamide]"
56 nM,15,"CN(C)c1ccc2c(=O)c(C(=O)NC(c3c(Cl)cccc3Cl)C(F)(F)F)cn(-c3ccc(F)cc3F)c2n1 (racemic) [Example 56, rac-N-[1-(2,6-Dichlorophenyl)-2,2,2-trifluoroethyl]-1-(2,4-difluorophenyl)-7-(dimethylamino)-4-oxo-1,4-dihydro-1,8-naphthyridine-3-carboxamide]"
28 nM,15,"CCC(NC(=O)c1cn(-c2ccc(F)cc2F)c2nc(N(C)CCF)ccc2c1=O)C(F)(F)F (racemic) [Example 104, rac-1-(2,4-Difluorophenyl)-7-[(2-fluoroethyl)(methyl)amino]-4-oxo-N-[1,1,1-trifluorobutan-2-yl]-1,4-dihydro-1,8-naphthyridine-3-carboxamide]"
34 nM,8,"CCC(NC(=O)c1cn(-c2ccccc2F)c2nc(N(C)C)ccc2c1=O)C(F)(F)F (racemic) [Example 204, rac-7-(Dimethylamino)-1-(2-fluorophenyl)-4-oxo-N-[1,1,1-trifluorobutan-2-yl]-1,4-dihydro-1,8-naphthyridine-3-carboxamide]"
21 nM,35,"O=C(NC(c1ccccc1Cl)C(F)(F)F)c1cn(-c2ccc(F)cc2F)c2nc(N3C[C@@H](O)CC3=O)ccc2c1=O (mixture of isomers) [Example 211, N-[1-(2-Chlorophenyl)-2,2,2-trifluoroethyl]-1-(2,4-difluorophenyl)-7-[(4S)-4-hydroxy-2-oxopyrrolidin-1-yl]-4-oxo-1,4-dihydro-1,8-naphthyridine-3-carboxamide]"
